Reference: patent US6040303A, “7-phenyl-1, 4-diazepane compounds, process for their preparation, and pharmaceutical compositions containing them” (Solvay Pharmaceuticals GmbH, priority 1997, dated 2000)

How the values were obtained:
human NK-1 receptors = target: T1, human NK-1 receptors (Homo sapiens, UniProt P25103); assay: Binding affinity to human NK-1 receptors ([3H]-substance P displacement, membranes of CHO cells); conditions: membrane preparation of CHO cells expressing human NK-1 receptor, Ki calculated from IC50, read-out: In vitro binding to human NK-1 receptors - Ki value
T1 construct: expressed in transfected cells; host or cells: CHO cells (membrane preparation)
Protocol: 1. Determination of the binding power of the test substances to NK-1 receptors.
The affinity of the test substances to human NK-1 receptors was measured in vitro, and the inhibition of the binding of the physiological neurokinin substance P to neurokinin-1 receptors was determined.
The receptor binding studies were performed with [^3 H]-substance P as ligand. For the binding test, different samples of a membrane preparation of CHO cells (=egg cells of the Chinese hamster, […]), which express the human NK-1 receptor, were incubated with a solution of the marked ligand, with the incubation mixtures containing no test substance or additions of different concentrations of test substance. Then, bound and free ligands in each of the samples were separated with the aid of glass-fiber filtration. The fraction remaining in the filter was washed several times with buffer solution, and then the radioactivity of the fraction remaining in the filter was measured using a beta scintillation counter. That concentration which effects half maximum displacement of the bound ligand was determined as IC50 of the respective test substance. From this, the corresponding inhibition constant (Ki value) of the test substance was calculated.
The example numbers listed for the compounds of Formula I relate to the following preparative examples.

[1] = tested on: visceral sensitivity to pain in rats (distension-induced contractions of the abdominal muscles); assay: Influencing of the visceral sensitivity to pain: distension-induced abdominal contractions in rats; format: in vivo; conditions: rat, subcutaneous, 20 minutes after administration
Excerpt: 3. Investigation of the activity of the compounds on the visceral sensitivity to pain in rats.
Visceral pain leads to visceral reactions which manifest themselves, inter alia, by contractions of the abdominal muscles. The number of contractions of the abdominal muscles occurring after a mechanical pain stimulus caused by distending the large intestine is thus a measurement for determining the visceral sensitivity to pain.
The inhibiting activity of the test substances on distension-induced abdominal contractions was tested in rats. The distension of the large intestine with an introduced balloon was used as the stimulus; the contraction of the abdominal muscles was measured as response. One hour after the sensitising of the large intestine by instillation of dilute acetic acid (0.6%, 1.5 ml), a latex balloon was introduced and inflated to 100 mbar for 10 minutes. During this time, the contractions of the abdominal muscles were counted. 20 minutes after subcutaneous administration of the test substance, this measurement was repeated. The activity of the test substance was calculated as a percentage reduction in the counted contractions compared with the control. The reductions in the number of abdominal contractions achieved with different doses of the test substance of Example 1 are listed in percentages, relative to the control values (=100%) measured before ingestion of the substance in the following Table 3.

[2] = tested on: stool passage through the colon of the rat; assay: Influencing of colon passage: barium sulfate elimination after oral administration in rats; format: in vivo
Protocol: 2. Investigation of the activity of the compounds on stool passage through the colon of the rat.
The effects of the test substances on the transport of stools through the large intestine were examined in rats after feeding. After feeding, the beginning of elimination and the mean dwell time of barium sulfate in the colon were determined as a measurement of the colon motility leading to elimination of stools.
After oral administration of the test substance, the animals were administered 2 ml of an 80% barium sulfate suspension via an artificial outlet at the caecum. The animals were placed in metabolism cages, and the faeces were collected at one hour intervals over 24 hours. The content of barium sulfate in the faeces was measured using radiography, and the beginning of elimination of barium sulfate and the mean retention time were determined therefrom. The delays in the beginning of elimination and prolongations of the mean residence time of the barium sulfate achieved in this experimental arrangement with various doses of the test substance of Example 1 can be seen from the following Table 2. The time interval up to the beginning of elimination and the mean retention time are given in percentages relative to the values obtained in a control test without test substance (=100%).

T1 sequence (P25103 whole entry): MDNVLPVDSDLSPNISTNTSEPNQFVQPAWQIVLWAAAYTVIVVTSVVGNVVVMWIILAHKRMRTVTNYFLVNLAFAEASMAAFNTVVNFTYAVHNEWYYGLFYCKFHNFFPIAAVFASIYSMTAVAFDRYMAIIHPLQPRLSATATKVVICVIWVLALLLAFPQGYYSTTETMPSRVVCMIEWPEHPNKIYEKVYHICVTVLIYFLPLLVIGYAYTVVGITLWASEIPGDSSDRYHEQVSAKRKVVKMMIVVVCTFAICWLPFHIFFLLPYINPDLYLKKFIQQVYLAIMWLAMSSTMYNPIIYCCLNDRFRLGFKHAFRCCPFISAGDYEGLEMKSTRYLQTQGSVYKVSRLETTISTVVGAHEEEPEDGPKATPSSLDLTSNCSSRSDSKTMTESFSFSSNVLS

**Q.** For `COc1ccccc1CNCCCC(=O)N1CCC(c2ccccc2)N(C(=O)c2cc(C(F)(F)F)cc(C(F)(F)F)c2)CC1` (stereo not shown) [Example 14], which Ki (human NK-1 receptors) is on record?
**A.** The Ki was 10 nM.

**Q.** How did the “Reduction in the number of distension-induced contractions of the abdominal muscles in % relative to control value = 100%” value ([1]; 10 μmole/kg) turn out when `COc1ccccc1CN(C)CCCC(=O)N1CCC(c2ccccc2)N(C(=O)c2cc(C(F)(F)F)cc(C(F)(F)F)c2)CC1` (stereo not shown) [Example 1, 1-(3,5-bistrifluoromethylbenzoyl)-4-{[3-[N-(2-methoxybenzyl)-N-methyl]amino]propylcarbonyl}-7-phenyl-1,4-diazepane] was run?
**A.** The value was 33%.

**Q.** And the “Reduction in the number of distension-induced contractions of the abdominal muscles in % relative to control value = 100%” value ([1]; 21.5 μmole/kg)?
**A.** The value was 39%.

**Q.** What about the “Reduction in the number of distension-induced contractions of the abdominal muscles in % relative to control value = 100%” value ([1]; 100 μmole/kg) of the same molecule?
**A.** The value was 61%.

**Q.** What about the Ki (human NK-1 receptors) of the same molecule?
**A.** Its Ki is 12 nM.

**Q.** What about the “Mean retention time in % relative to control value = 100%” value ([2]; 10 μmole/kg) of the same molecule?
**A.** The value was 98%.

**Q.** And the “Time interval until beginning of elimination in % relative to control value = 100%” value ([2]; 10 μmole/kg)?
**A.** Its value is 100%.

**Q.** And the “Mean retention time in % relative to control value = 100%” value ([2]; 21.5 μmole/kg)?
**A.** Its value is 106%.

**Q.** And the “Time interval until beginning of elimination in % relative to control value = 100%” value ([2]; 21.5 μmole/kg)?
**A.** Its value is 115%.

**Q.** What about the “Mean retention time in % relative to control value = 100%” value ([2]; 100 μmole/kg) of the same molecule?
**A.** Its value is 119%.

**Q.** What about the “Time interval until beginning of elimination in % relative to control value = 100%” value ([2]; 100 μmole/kg) of the same molecule?
**A.** The value was 138%.

**Q.** For `COc1ccccc1CN(C)CCCC(=O)N1CCC(c2ccccc2)N(C(=O)c2cc(C(F)(F)F)cc(C(F)(F)F)c2)CC1` (single isomer, unassigned; (-)) [Example 2, (-)-1-(3,5-bistrifluoromethylbenzoyl)-4-{[3-[N-(2-methoxybenzyl)-N-methyl]amino]propylcarbonyl}-7-phenyl-1,4-diazepane], which Ki (human NK-1 receptors) is on record?
**A.** The Ki was 10 nM.

**Q.** For `COc1ccccc1CNCC(=O)N1CCC(c2ccccc2)N(C(=O)c2cc(C)cc(C)c2)CC1` (stereo not shown) [Example 4, 1-(3,5-dimethylbenzoyl)-4-{[N-(2-methoxybenzyl)amino]acetyl}-7-phenyl-1,4-diazepane], which Ki (human NK-1 receptors) is on record?
**A.** Its Ki is 8 nM.
